From US10870652B2, “Compounds and methods for modulating bruton's tyrosine kinase” (CORVUS PHARMACEUTICALS, INC., priority 2016, dated 2020)

Legend:
Format in all cases: biochemical
ITK = biological target: T1, ITK (Homo sapiens, UniProt Q08881); assay: ITK IC50 kinase inhibition assay
T1 sequence (Q08881 1-620): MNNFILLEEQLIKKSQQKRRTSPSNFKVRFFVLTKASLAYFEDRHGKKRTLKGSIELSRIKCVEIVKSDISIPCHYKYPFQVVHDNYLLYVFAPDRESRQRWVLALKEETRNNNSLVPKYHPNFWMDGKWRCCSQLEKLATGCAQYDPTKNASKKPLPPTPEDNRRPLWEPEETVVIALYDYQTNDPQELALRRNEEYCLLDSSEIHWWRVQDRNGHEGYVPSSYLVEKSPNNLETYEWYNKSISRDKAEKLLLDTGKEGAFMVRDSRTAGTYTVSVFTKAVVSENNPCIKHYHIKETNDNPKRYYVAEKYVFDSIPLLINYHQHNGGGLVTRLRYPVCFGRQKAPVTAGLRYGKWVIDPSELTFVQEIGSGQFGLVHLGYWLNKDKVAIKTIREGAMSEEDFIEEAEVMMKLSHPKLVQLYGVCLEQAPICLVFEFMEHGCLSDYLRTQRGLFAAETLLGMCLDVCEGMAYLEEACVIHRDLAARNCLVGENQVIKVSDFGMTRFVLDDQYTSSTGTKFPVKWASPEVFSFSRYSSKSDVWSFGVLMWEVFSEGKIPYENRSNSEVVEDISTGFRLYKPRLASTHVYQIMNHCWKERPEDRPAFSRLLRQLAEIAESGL

JAK3 = biological target: T2, JAK3 (Homo sapiens, UniProt P52333); assay: JAK3 IC50 kinase inhibition assay
T2 sequence (P52333 1-1124): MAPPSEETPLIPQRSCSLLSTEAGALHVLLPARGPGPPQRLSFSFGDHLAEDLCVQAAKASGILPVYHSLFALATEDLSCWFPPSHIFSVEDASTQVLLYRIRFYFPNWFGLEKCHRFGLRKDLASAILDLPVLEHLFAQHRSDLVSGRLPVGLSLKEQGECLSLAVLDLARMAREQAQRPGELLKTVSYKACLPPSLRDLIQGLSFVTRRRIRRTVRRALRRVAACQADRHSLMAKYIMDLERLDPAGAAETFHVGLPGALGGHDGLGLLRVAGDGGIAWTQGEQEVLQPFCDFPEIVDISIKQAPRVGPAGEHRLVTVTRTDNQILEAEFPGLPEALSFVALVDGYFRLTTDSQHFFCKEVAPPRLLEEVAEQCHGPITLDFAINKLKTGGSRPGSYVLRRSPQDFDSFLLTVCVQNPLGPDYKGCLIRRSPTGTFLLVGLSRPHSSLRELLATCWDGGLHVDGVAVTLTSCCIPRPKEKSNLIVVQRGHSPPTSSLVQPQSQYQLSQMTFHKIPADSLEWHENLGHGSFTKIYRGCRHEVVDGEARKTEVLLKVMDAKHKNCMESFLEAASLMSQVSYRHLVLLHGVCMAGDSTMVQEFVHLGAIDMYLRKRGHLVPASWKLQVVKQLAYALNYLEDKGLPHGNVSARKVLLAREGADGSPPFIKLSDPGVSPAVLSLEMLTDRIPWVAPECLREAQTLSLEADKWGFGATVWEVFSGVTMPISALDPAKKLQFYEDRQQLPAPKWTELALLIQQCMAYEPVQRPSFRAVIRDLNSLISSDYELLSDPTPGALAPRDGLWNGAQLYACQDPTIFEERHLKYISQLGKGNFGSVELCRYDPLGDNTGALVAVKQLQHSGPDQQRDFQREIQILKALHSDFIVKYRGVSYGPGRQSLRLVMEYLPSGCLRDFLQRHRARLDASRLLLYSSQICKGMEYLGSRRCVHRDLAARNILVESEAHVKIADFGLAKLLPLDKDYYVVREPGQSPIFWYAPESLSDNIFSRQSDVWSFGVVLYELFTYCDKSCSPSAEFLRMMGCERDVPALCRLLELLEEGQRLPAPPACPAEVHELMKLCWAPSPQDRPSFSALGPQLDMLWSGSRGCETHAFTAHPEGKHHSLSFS

TXK = biological target: T3, TXK (Homo sapiens, UniProt P42681); assay: TXK IC50 kinase inhibition assay
T3 sequence (P42681 1-527): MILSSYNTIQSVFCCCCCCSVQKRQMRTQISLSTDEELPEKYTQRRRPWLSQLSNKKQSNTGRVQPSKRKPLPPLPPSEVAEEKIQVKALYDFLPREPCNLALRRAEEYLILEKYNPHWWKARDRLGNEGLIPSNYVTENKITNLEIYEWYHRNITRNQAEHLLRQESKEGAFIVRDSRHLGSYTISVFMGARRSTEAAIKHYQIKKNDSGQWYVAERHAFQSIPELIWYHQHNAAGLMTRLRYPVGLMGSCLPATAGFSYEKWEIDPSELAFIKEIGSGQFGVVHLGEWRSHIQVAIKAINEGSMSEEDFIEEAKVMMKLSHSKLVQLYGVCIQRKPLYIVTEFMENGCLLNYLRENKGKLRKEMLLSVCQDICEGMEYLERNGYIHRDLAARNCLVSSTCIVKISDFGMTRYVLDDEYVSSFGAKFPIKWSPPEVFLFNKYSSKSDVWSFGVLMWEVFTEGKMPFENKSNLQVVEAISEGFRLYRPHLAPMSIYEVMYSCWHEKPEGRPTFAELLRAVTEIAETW

BTK = BTK (Homo sapiens, UniProt Q06187); assay: BTK IC50 kinase inhibition assay
Sequence of BTK (Q06187 whole entry): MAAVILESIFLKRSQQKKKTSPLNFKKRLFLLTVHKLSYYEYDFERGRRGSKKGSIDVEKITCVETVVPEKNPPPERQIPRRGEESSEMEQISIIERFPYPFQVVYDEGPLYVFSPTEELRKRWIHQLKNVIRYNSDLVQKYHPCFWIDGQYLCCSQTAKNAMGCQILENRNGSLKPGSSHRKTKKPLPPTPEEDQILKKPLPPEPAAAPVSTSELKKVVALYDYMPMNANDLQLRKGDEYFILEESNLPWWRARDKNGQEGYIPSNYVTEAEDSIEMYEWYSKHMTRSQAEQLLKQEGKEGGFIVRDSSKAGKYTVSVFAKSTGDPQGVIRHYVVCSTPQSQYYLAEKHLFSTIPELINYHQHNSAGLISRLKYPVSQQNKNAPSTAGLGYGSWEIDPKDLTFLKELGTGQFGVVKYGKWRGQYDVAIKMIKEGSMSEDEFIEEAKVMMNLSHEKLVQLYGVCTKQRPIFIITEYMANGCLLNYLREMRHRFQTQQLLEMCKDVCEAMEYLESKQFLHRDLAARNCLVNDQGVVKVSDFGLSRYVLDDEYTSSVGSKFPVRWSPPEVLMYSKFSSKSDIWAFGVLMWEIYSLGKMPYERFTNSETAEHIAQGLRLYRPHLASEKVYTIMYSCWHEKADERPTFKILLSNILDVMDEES

| Structure (SMILES) | IC50 (ITK) [µM] | IC50 (JAK3) [µM] | IC50 (TXK) [µM] | IC50 (BTK) [µM] |
| --- | --- | --- | --- | --- |
| CC#CC(=O)N1CCC[C@H]1Cn1nc(-c2ccc(Oc3ccccc3)cc2F)c2cncnc21 [Compound A20, (S)-1-(2-((3-(2-fluoro-4-phenoxyphenyl)-1H-pyrazolo[3,4-d]pyrimidin-1-yl)methyl)pyrrolidin-1-yl)but-2-yn-1-one] | > 0.5 | > 0.5 | > 0.5 | < 0.1 |
| C=CC(=O)N1CCCC[C@H]1Cn1nc(-c2ccc(Oc3ccccc3)cc2)c2cncnc21 [Compound A44, (S)-1-(2-((3-(4-phenoxyphenyl)-1H-pyrazolo[3,4-d]pyrimidin-1-yl)methyl)piperidin-1-yl)prop-2-en-1-one] | > 0.5 | > 0.5 | 0.1 to 0.5 | < 0.1 |
| C=CC(=O)N1CC(C)(C)C[C@H]1Cn1nc(-c2ccc(Oc3ccccc3)cc2)c2cncnc21 [Compound A49, (S)-1-(4,4-dimethyl-2-((3-(4-phenoxyphenyl)-1H-pyrazolo[3,4-d]pyrimidin-1-yl)methyl)pyrrolidin-1-yl)prop-2-en-1-one] | > 0.5 | > 0.5 | < 0.1 | < 0.1 |
| CC#CC(=O)N1CCC(Cn2nc(-c3ccc(Oc4ccccc4)cc3)c3cncnc32)CC1 [Compound A57, 1-(4-((3-(4-phenoxyphenyl)-1H-pyrazolo[3,4-d]pyrimidin-1-yl)methyl)piperidin-1-yl)but-2-yn-1-one] | > 0.5 | > 0.5 | > 0.5 | > 0.5 |
| C=CC(=O)N1CCC[C@H]1Cn1nc(-c2ccc(Oc3cccc(C(F)F)c3)cc2)c2cncnc21 [Compound A47, (S)-1-(2-((3-(4-(3-(difluoromethyl)phenoxy)phenyl)-1H-pyrazolo[3,4-d]pyrimidin-1-yl)methyl)pyrrolidin-1-yl)prop-2-en-1-one] | > 0.5 | > 0.5 | < 0.1 | < 0.1 |
| C=CC(=O)N1CCC2(CC1)CC(n1nc(-c3ccc(Oc4ccccc4)cc3)c3cncnc31)C2 [Compound A54, 1-(2-(3-(4-phenoxyphenyl)-1H-pyrazolo[3,4-d]pyrimidin-1-yl)-7-azaspiro[3.5]nonan-7-yl)prop-2-en-1-one] | > 0.5 | > 0.5 | > 0.5 | > 0.5 |
| C=C(C)C(=O)N1CCC[C@@H](n2nc(-c3ccc(Oc4ccccc4)cc3)c3cncnc32)C1 [Compound A21, (R)-2-methyl-1-(3-(3-(4-phenoxyphenyl)-1H-pyrazolo[3,4-d]pyrimidin-1-yl)piperidin-1-yl)prop-2-en-1-one] | > 0.5 | > 0.5 | > 0.5 | > 0.5 |
| C=CC(=O)N[C@H]1C[C@H](n2nc(-c3ccc(Oc4ccccc4)cc3)c3cncnc32)C1 [Compound A55, N-((1r,3r)-3-(3-(4-phenoxyphenyl)-1H-pyrazolo[3,4-d]pyrimidin-1-yl)cyclobutyl)acrylamide] | > 0.5 | > 0.5 | > 0.5 | 0.1 to 0.5 |
| CC#CC(=O)N1CCC[C@@H]1Cn1nc(-c2ccc(Oc3ccccc3)cc2)c2cncnc21 [Compound A65, (R)-1-(2-((3-(4-phenoxyphenyl)-1H-pyrazolo[3,4-d]pyrimidin-1-yl)methyl)pyrrolidin-1-yl)but-2-yn-1-one] | > 0.5 | > 0.5 | > 0.5 | 0.1 to 0.5 |
| CN1CCN(CC#CC(=O)N2CC3(CC(n4nc(-c5ccc(Oc6ccccc6)cc5)c5cncnc54)C3)C2)CC1 [Compound A76, 4-(4-Methylpiperazin-1-yl)-1-(6-(3-(4-phenoxyphenyl)-1H-pyrazolo[3,4-d]pyrimidin-1-yl)-2-azaspiro[3.3]heptan-2-yl)but-2-yn-1-one] | > 0.5 | > 0.5 | < 0.1 | < 0.1 |
| C=CC(=O)N1CCC[C@@H](n2nc(-c3ccc(Oc4c(F)cccc4F)cc3)c3cncnc32)C1 [Compound A50, (R)-1-(3-(3-(4-(2,6-difluorophenoxy)phenyl)-1H-pyrazolo[3,4-d]pyrimidin-1-yl)piperidin-1-yl)prop-2-en-1-one] | > 0.5 | > 0.5 | 0.1 to 0.5 | < 0.1 |
| C=CC(=O)N1CC[C@@H](n2nc(-c3ccc(Oc4ccccc4)cc3F)c3cncnc32)C1 [Compound A17, (R)-1-(3-(3-(2-fluoro-4-phenoxyphenyl)-1H-pyrazolo[3,4-d]pyrimidin-1-yl)pyrrolidin-1-yl)prop-2-en-1-one] | > 0.5 | > 0.5 | < 0.1 | < 0.1 |
| CN(C)C/C=C/C(=O)N1CC[C@@H](n2nc(-c3ccc(Oc4ccccc4)cc3)c3cncnc32)C1 [Compound A25] | > 0.5 | > 0.5 | > 0.5 | < 0.1 |
| C=CC(=O)N1CCC[C@@H]1Cn1nc(-c2ccc(Oc3ccccc3)cc2)c2cncnc21 [Compound A7, (R)-1-(2-((3-(4-phenoxyphenyl)-1H-pyrazolo[3,4-d]pyrimidin-1-yl)methyl)pyrrolidin-1-yl)prop-2-en-1-one] | > 0.5 | > 0.5 | 0.1 to 0.5 | < 0.1 |
| C=CC(=O)N1CCC[C@@H](n2nc(-c3ccc(Oc4ccccc4)cc3)c3cncnc32)C1 [Compound A9, (R)-1-(3-(3-(4-phenoxyphenyl)-1H-pyrazolo[3,4-d]pyrimidin-1-yl)piperidin-1-yl)prop-2-en-1-one] | > 0.5 | > 0.5 | < 0.1 | < 0.1 |
| CC#CC(=O)N1CC[C@@H]1Cn1nc(-c2ccc(Oc3ccccc3)cc2)c2cncnc21 [Compound A67, (R)-1-(2-((3-(4-phenoxyphenyl)-1H-pyrazolo[3,4-d]pyrimidin-1-yl)methyl)azetidin-1-yl)but-2-yn-1-one] | > 0.5 | > 0.5 | > 0.5 | 0.1 to 0.5 |
| CC#CC(=O)N1CCC(n2nc(-c3ccc(Oc4ccccc4)cc3)c3cncnc32)CC1 [Compound A59, 1-(4-(3-(4-phenoxyphenyl)-1H-pyrazolo[3,4-d]pyrimidin-1-yl)piperidin-1-yl)but-2-yn-1-one] | > 0.5 | > 0.5 | > 0.5 | 0.1 to 0.5 |
| C=CC(=O)N1CCC[C@H]1Cn1nc(-c2ccc(Oc3ccccc3)cc2F)c2cncnc21 [Compound A19, (S)-1-(2-((3-(2-fluoro-4-phenoxyphenyl)-1H-pyrazolo[3,4-d]pyrimidin-1-yl)methyl)pyrrolidin-1-yl)prop-2-en-1-one] | > 0.5 | > 0.5 | < 0.1 | < 0.1 |
